This passage reports IC50 and pKa results from ChEMBL document CHEMBL1140600, “Recent advances in proton pump inhibitors and management of acid-peptic disorders” (Bioorg Med Chem, 2007).

Broadly, the IC50 is the concentration at which inhibition is half-maximal. A higher IC50 goes with a need for much substance. The pKa is the pH at which an ionisable group is half protonated. Read a high pKa as a group that holds its proton tightly.

Structures are written as SMILES.

Data set [1] can be described thus: Inhibition of H+/K+ ATPase.
The nature of data set [2]: Dissociation constant, pKa of the compound. In kind it is physicochemical.

In the case of `CCOC(=O)c1cnc(C[S+]([O-])c2nc3ccccc3[nH]2)nc1N(C)C` (stereo unspecified), in data set [1], half-maximal inhibition (IC50) was put at 7.5 µM.

In data set [2], `COCCCOc1ccnc(C[S+]([O-])c2nc3ccccc3[nH]2)c1C` (stereo unspecified) [RABEPRAZOLE] registered a pKa of 5.

For `COc1ccc2nc([S@@+]([O-])Cc3ncc(C)c(OC)c3C)[nH]c2c1` [ESOMEPRAZOLE], the pKa in data set [2] was 4.

In the case of `COc1ccc2[nH]c([S+]([O-])Cc3ncc(C)c(OC)c3C)nc2c1` (stereo unspecified) [OMEPRAZOLE], the IC50 in data set [1] turned out to be 5.8 µM.

With `Cc1c(OCC(F)(F)F)ccnc1C[S+]([O-])c1nc2ccccc2[nH]1` (stereo unspecified) [LANSOPRAZOLE], the pKa in data set [2] came out at 4.

Regarding `COc1ccnc(C[S+]([O-])c2nc3ccc(OC(F)F)cc3[nH]2)c1OC` (stereo unspecified) [PANTOPRAZOLE], the pKa in data set [2] was found to be 4.
